Where only a bound is given, the exact number is not on record here.

Assay [1] concerns the target T1, porcine pancreatic elastase (PPE) (Sus scrofa, UniProt P00772).
T1 construct: purchased Sigma or EMDbiosciences
Nature of the assay: Specificity assay, porcine pancreatic elastase (pNA substrate). The format is biochemical. As to conditions: read-out: PPE activity in the specificity assays (IC50). The method, then: The specificities of compounds of the present disclosure were determined against a variety of serine proteases: human neutrophil elastase (HNE), porcine pancreatic elastase (PPE) and human pancreatic chymotrypsin and one cysteine protease: human liver cathepsin B. In all cases, a 96-well plate format protocol using colorimetric p-nitroaniline (pNA) substrate or fluorometric Amino-Methyl-Coumarin (AMC) substrate, specific for each enzyme was used as described previously (PCT Patent Application No. WO 00/09543) with some modifications. All enzymes were purchased from Sigma or EMDbiosciences while the substrates were from Bachem.
Each pNA assay included a 2 h enzyme-inhibitor pre-incubation at room temperature followed by addition of substrate and hydrolysis to ˜15% conversion as measured on a Spectramax Pro microplate reader. The cathepsin B assay was initiated by adding substrate to a 10 min enzyme-inhibitor pre-incubation at room temperature, and the assay plate measured immediately using the Cytofluor Series 4000. Compound concentrations varied from 100 to 0.4 μM depending on their potency.
The final conditions for each assay were as follows: […]
The percentage of inhibition was calculated using the formula: [1−((UVinh−UVblank)/(UVctl−UVblank))]×100 […]

For assay [2], the system named is HCV replicon (Renilla luciferase) in HUH-7 cells. Nature of the assay: HCV replicon luciferase reporter assay. The format is cell-based, HCV strain 1b. As to conditions: Huh-7, 96 h, 4 days. An excerpt: An HCV replicon whole cell system was established as described by Lohmann V, Korner F, Koch J, Herian U, Theilmann L, Bartenschlager R., Science 285(5424):110-3 (1999). This system enabled us to evaluate the effects of our HCV Protease compounds on HCV RNA replication. Briefly, using the HCV strain 1b sequence described in the Lohmann paper (Assession number: AJ238799), an HCV cDNA was synthesized by Operon Technologies, Inc. (Alameda, Calif.), and the full-length replicon was then assembled in plasmid pGem9zf(+) (Promega, Madison, Wis.) using standard molecular biology techniques. […]
As a secondary assay, EC50 determinations from the replicon FRET assay were confirmed in a replicon luciferase reporter assay. […] Following 4 days in a 37° C./5% CO2 incubator, cells were analyzed for Renilla Luciferase activity using the Promega Dual-Glo Luciferase Assay System. […] Plates were read on a Packard TopCount NXT using a luminescence program.
The percentage inhibition was calculated using the formula below: % control=average luciferase signal in experimental wells (+compound)
average luciferase signal in DMSO control wells (−compound) The values were graphed and analyzed using XLfit to obtain the EC50 value.
In general terms: A replicon is a self-replicating genome or part of one, used to study replication in cells.

T1 sequence (P00772 27-266): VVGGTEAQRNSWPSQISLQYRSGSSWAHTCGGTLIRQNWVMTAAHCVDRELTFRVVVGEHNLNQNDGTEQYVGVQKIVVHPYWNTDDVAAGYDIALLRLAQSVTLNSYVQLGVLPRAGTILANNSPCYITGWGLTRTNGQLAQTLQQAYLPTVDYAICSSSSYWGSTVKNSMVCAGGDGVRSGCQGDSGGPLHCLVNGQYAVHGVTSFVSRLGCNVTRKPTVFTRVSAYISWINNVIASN

Usually IC50 stands for the concentration needed to halve the response being measured. As usually defined, the EC50 is the concentration at which the effect is half-maximal. A high value points to weaker potency. Regarding `COc1c(O[C@@H]2C[C@H]3C(=O)N[C@]4(C(=O)NS(=O)(=O)C5CC5)C[C@H]4/C=C\CCCCC[C@H](NC(=O)OC(C)(C)C)C(=O)N3C2)ccc2c(Cl)nccc12` [Compound 3], the 50% inhibitory concentration (IC50) in assay [1] was greater than 100000 nM. This molecule yielded a concentration giving a half-maximal response (EC50) in assay [2] of 5.5 nM.

The values above are taken from patent US7741281B2, “Hepatitis C virus inhibitors” (Bristol-Myers Squibb Company, priority 2005, dated 2010).
